Bridge positions count the residues as written; N and C are the ends. Square brackets hold non-standard residues; d marks the D form. Peptide text beside a SMILES is read from it. Nle = CCCC[C@H](N)C(=O)O
Legend:
Kv1.3 = molecular target: T1, Kv1.3 (Homo sapiens, UniProt P22001); experiment: cell-based; conditions: CHO cells, whole-cell patch clamp; read-out: Potency IC50 (nM) Kv1.3
T1 construct: expressed in transfected cells; host or cells: Chinese Hamster Ovary (CHO)

Rat whole blood = Rat whole blood (Rattus norvegicus, UniProt P15384)
[1] = molecular target: T2, human Kv1.3 voltage-gated K+ channel (Homo sapiens, UniProt P22001); experiment: cell-based; conditions: inhibition of thallium flux, CHO-DUKX cells with human Kv1.3; read-out: IC50
T2 construct: host or cells: CHO-DUKX
T2 sequence (P22001 whole entry): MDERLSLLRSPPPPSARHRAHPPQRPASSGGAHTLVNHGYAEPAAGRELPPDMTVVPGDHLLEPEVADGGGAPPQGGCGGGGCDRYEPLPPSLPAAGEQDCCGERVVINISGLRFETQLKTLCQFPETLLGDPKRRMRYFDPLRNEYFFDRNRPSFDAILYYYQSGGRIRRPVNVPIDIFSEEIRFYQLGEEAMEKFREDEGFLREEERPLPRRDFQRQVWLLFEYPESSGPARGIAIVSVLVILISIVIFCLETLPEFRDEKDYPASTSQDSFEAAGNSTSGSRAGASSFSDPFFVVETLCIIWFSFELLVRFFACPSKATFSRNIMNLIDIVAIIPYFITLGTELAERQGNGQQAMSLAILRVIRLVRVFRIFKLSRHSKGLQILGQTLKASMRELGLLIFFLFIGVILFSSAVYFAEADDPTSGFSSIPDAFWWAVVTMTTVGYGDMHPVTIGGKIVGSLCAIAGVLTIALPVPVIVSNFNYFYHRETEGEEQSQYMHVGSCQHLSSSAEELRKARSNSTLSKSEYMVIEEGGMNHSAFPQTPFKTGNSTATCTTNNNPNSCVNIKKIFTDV

T1 sequence (P22001 whole entry): as above
Sequence of Rat whole blood (P15384 whole entry): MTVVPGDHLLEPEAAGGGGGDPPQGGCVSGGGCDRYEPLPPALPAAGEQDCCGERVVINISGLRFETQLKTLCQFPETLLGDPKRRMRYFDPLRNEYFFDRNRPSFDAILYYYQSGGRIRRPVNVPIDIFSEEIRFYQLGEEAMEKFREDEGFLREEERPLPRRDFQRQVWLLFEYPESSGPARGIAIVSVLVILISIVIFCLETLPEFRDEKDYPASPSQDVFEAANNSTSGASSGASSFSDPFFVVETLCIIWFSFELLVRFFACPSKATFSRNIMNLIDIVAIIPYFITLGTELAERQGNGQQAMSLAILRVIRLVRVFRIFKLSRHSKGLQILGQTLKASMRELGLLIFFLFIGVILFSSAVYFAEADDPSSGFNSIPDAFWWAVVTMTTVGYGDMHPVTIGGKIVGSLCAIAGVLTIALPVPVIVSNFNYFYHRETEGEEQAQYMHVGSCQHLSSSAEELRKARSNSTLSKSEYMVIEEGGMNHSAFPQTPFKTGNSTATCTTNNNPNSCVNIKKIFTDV

CC[C@H](C)[C@@H]1NC(=O)[C@H](C)NC(=O)[C@H](CCCCN)NC(=O)[C@H](CC(C)C)NC(=O)[C@@H]2CSSC[C@@H](C(=O)N[C@@H](Cc3ccc(O)cc3)C(=O)N3CCC[C@H]3C(=O)N[C@@H](CCCNC(=N)N)C(N)=O)NC(=O)[C@H](CCCCN)NC(=O)[C@@H]3CSSC[C@H](NC(=O)[C@H](CCC(=O)O)NC(=O)[C@H](C(C)C)NC(=O)[C@H](CO)NC(=O)[C@H](C)NC(=O)[C@H](CO)NC(=O)[C@@H](NC(=O)[C@H](CCCNC(=N)N)NC(=O)[C@H](CCSC)NC(=O)[C@H](CC(=O)O)NC(=O)[C@H](CCSC)NC(=O)[C@@H](N)CC(N)=O)CSSC[C@H](NC(=O)[C@H](CCCCN)NC(=O)CNC(=O)[C@H](Cc4ccccc4)NC(=O)[C@H]([C@@H](C)CC)NC(=O)[C@H](CO)NC(=O)CNC1=O)C(=O)N[C@@H](CCSC)C(=O)N[C@@H](CC(N)=O)C(=O)N[C@@H](CCCCN)C(=O)N[C@@H](CCCCN)C(=O)N3)C(=O)N[C@@H](CCCCN)C(=O)N[C@@H](CC(C)C)C(=O)N[C@@H](CCCCN)C(=O)N2 [Compound 32] (H-NMDMRCSASVECKLKCLKAIGSIFGKCMNKKCKCYPR-NH2; disulfide 6-27, 12-32, 16-34)
IC50 (Kv1.3): 0.38 nM
IC50 (Rat whole blood): ≤ 1 nM
IC50 [1]: 0.12 nM

CC[C@H](C)[C@@H]1NC(=O)[C@H](C)NC(=O)[C@H](CCCCN)NC(=O)[C@H](CCCNC(=N)N)NC(=O)[C@@H]2CSSC[C@@H](C(=O)N[C@@H](Cc3ccc(O)cc3)C(=O)N3CCC[C@H]3C(=O)N[C@@H](CCCNC(=N)N)C(N)=O)NC(=O)[C@H](CCCCN)NC(=O)[C@@H]3CSSC[C@H](NC(=O)[C@H](CCC(=O)O)NC(=O)[C@H](C(C)C)NC(=O)[C@H](CO)NC(=O)[C@H](C)NC(=O)[C@H](CO)NC(=O)[C@@H](NC(=O)[C@H](CCCNC(=N)N)NC(=O)[C@H](CCSC)NC(=O)[C@H](CC(=O)O)NC(=O)[C@H](CCSC)NC(=O)[C@@H](N)CC(N)=O)CSSC[C@H](NC(=O)[C@H](CCCCN)NC(=O)CNC(=O)[C@H](Cc4ccccc4)NC(=O)[C@H]([C@@H](C)CC)NC(=O)[C@H](CO)NC(=O)CNC1=O)C(=O)N[C@@H](CCSC)C(=O)N[C@@H](CC(N)=O)C(=O)N[C@@H](CCCCN)C(=O)N[C@@H](CCCCN)C(=O)N3)C(=O)N[C@@H](CCCCN)C(=O)N[C@@H](CCC(N)=O)C(=O)N[C@@H](CCCCN)C(=O)N2 [Compound 51] (H-NMDMRCSASVECKQKCRKAIGSIFGKCMNKKCKCYPR-NH2; disulfide 6-27, 12-32, 16-34)
IC50 (Kv1.3): 0.25 nM
IC50 [1]: 0.11 nM

CC[C@H](C)[C@@H]1NC(=O)[C@H](Cc2ccc(O)cc2)NC(=O)[C@H](CCCCN)NC(=O)[C@H](CC(C)C)NC(=O)[C@@H]2CSSC[C@@H](C(=O)N[C@@H](Cc3ccc(O)cc3)C(=O)N3CCC[C@H]3C(=O)N[C@@H](CCCNC(=N)N)C(N)=O)NC(=O)[C@H](CCCCN)NC(=O)[C@@H]3CSSC[C@H](NC(=O)[C@H](CCC(=O)O)NC(=O)[C@H](C(C)C)NC(=O)[C@H](CO)NC(=O)[C@H](C)NC(=O)[C@H](CO)NC(=O)[C@@H](NC(=O)[C@H](CCCNC(=N)N)NC(=O)[C@H](CCSC)NC(=O)[C@H](CC(=O)O)NC(=O)[C@H](CCSC)NC(=O)[C@@H](N)CC(N)=O)CSSC[C@H](NC(=O)[C@H](CCCCN)NC(=O)CNC(=O)[C@H](Cc4ccccc4)NC(=O)[C@H]([C@@H](C)CC)NC(=O)[C@H](CO)NC(=O)CNC1=O)C(=O)N[C@@H](CCSC)C(=O)N[C@@H](CC(N)=O)C(=O)N[C@@H](CCCCN)C(=O)N[C@@H](CCCCN)C(=O)N3)C(=O)N[C@@H](CCCCN)C(=O)N[C@@H](CCC(N)=O)C(=O)N[C@@H](CCCCN)C(=O)N2 [Compound 55] (H-NMDMRCSASVECKQKCLKYIGSIFGKCMNKKCKCYPR-NH2; disulfide 6-27, 12-32, 16-34)
IC50 (Kv1.3): 0.12 nM
IC50 [1]: 0.12 nM

CCCC[C@@H]1NC(=O)[C@@H]2CSSC[C@H](NC(=O)[C@H](CCCNC(=N)N)NC(=O)[C@H](CCCC)NC(=O)[C@H](CC(=O)O)NC(=O)[C@H](CCCC)NC(=O)[C@@H](N)Cc3c[nH]cn3)C(=O)N[C@@H](CO)C(=O)N[C@@H](C)C(=O)N[C@@H](CO)C(=O)N[C@@H](C(C)C)C(=O)N[C@@H](CCC(=O)O)C(=O)N[C@H]3CSSC[C@H](NC(=O)[C@H](CCCCN)NC(=O)[C@H](CCCCN)NC(=O)[C@H](CC(N)=O)NC1=O)C(=O)N[C@@H](CCCCN)C(=O)N[C@H](C(=O)N[C@@H](Cc1ccc(O)cc1)C(=O)N1CCC[C@H]1C(=O)N[C@@H](CCCNC(=N)N)C(N)=O)CSSC[C@H](NC(=O)[C@H](CCCCN)NC(=O)[C@H](CCC(N)=O)NC(=O)[C@H](CCCCN)NC3=O)C(=O)N[C@@H](CC(C)C)C(=O)N[C@@H](CCCCN)C(=O)N[C@@H](C)C(=O)N[C@@H]([C@@H](C)CC)C(=O)NCC(=O)N[C@@H](CO)C(=O)N[C@@H]([C@@H](C)CC)C(=O)N[C@@H](Cc1ccccc1)C(=O)NCC(=O)N[C@@H](CCCCN)C(=O)N2 [Compound 64] (H-H[Nle]D[Nle]RCSASVECKQKCLKAIGSIFGKC[Nle]NKKCKCYPR-NH2; disulfide 6-27, 12-32, 16-34)
IC50 (Kv1.3): 0.25 nM
IC50 [1]: 0.12 nM

CCCC[C@@H]1NC(=O)[C@@H]2CSSC[C@H](NC(=O)[C@H](CCCNC(=N)N)NC(=O)[C@H](CCCC)NC(=O)[C@H](CC(=O)O)NC(=O)[C@H](CCCC)NC(=O)[C@@H](N)Cc3ccc(O)cc3)C(=O)N[C@@H](CO)C(=O)N[C@@H](C)C(=O)N[C@@H](CO)C(=O)N[C@@H](C(C)C)C(=O)N[C@@H](CCC(=O)O)C(=O)N[C@H]3CSSC[C@H](NC(=O)[C@H](CCCCN)NC(=O)[C@H](CCCCN)NC(=O)[C@H](CC(N)=O)NC1=O)C(=O)N[C@@H](CCCCN)C(=O)N[C@H](C(=O)N[C@@H](Cc1ccc(O)cc1)C(=O)N1CCC[C@H]1C(=O)N[C@@H](CCCNC(=N)N)C(N)=O)CSSC[C@H](NC(=O)[C@H](CCCCN)NC(=O)[C@H](CCC(N)=O)NC(=O)[C@H](CCCCN)NC3=O)C(=O)N[C@@H](CC(C)C)C(=O)N[C@@H](CCCCN)C(=O)N[C@@H](C)C(=O)N[C@@H]([C@@H](C)CC)C(=O)NCC(=O)N[C@@H](CO)C(=O)N[C@@H]([C@@H](C)CC)C(=O)N[C@@H](Cc1ccccc1)C(=O)NCC(=O)N[C@@H](CCCCN)C(=O)N2 [Compound 65] (H-Y[Nle]D[Nle]RCSASVECKQKCLKAIGSIFGKC[Nle]NKKCKCYPR-NH2; disulfide 6-27, 12-32, 16-34)
IC50 (Kv1.3): 0.14 nM
IC50 [1]: 0.12 nM

CCCC[C@H](NC(=O)[C@H](CC(=O)O)NC(=O)[C@H](CCCC)NC(=O)[C@@H](N)CO)C(=O)N[C@@H](CCCNC(=N)N)C(=O)N[C@H]1CSSC[C@@H]2NC(=O)[C@H](CCCCN)NC(=O)CNC(=O)[C@H](Cc3ccccc3)NC(=O)[C@H]([C@@H](C)CC)NC(=O)[C@H](CO)NC(=O)CNC(=O)[C@H]([C@@H](C)CC)NC(=O)[C@H](C)NC(=O)[C@H](C)NC(=O)[C@H](CC(C)C)NC(=O)[C@@H]3CSSC[C@@H](C(=O)N[C@@H](Cc4ccc(O)cc4)C(=O)N4CCC[C@H]4C(=O)N[C@@H](CCCNC(=N)N)C(N)=O)NC(=O)[C@H](CCCCN)NC(=O)[C@H](CSSC[C@H](NC(=O)[C@H](CCC(=O)O)NC(=O)[C@H](C(C)C)NC(=O)[C@H](CO)NC(=O)[C@H](C)NC(=O)[C@H](CO)NC1=O)C(=O)N[C@@H](C)C(=O)N[C@@H](CCC(N)=O)C(=O)N[C@@H](CCCCN)C(=O)N3)NC(=O)[C@H](CCCCN)NC(=O)[C@H](CCCCN)NC(=O)[C@H](CC(N)=O)NC(=O)[C@H](CCSC)NC2=O [Compound 80] (H-S[Nle]D[Nle]RCSASVECAQKCLAAIGSIFGKCMNKKCKCYPR-NH2; disulfide 6-27, 12-32, 16-34)
IC50 (Kv1.3): 0.16 nM
IC50 [1]: 0.15 nM

— patent publication US11780893B2, “Kv1.3 blockers” (Zealand Pharma A/S, priority 2019, dated 2023)
